Laboratory results from article PMC6941124 (International Journal of Molecular Sciences, 2019).
Several values for one entry are separate records, joined by “and”; a condition that tells them apart may be missing. Identical values can stand only once.

What was measured:
[1] = test system: HeLa CK1δ−/− cells expressing CK1δ T67S; assay: MTT viability assay, HeLa CK1δ−/− cells expressing CK1δ T67S; format: cell-based; details: 5 μM, 48 h
Protocol: (§1) Parental HeLa cells, as well as HeLa CSNK1D knock-out cells (CK1δ^−/−) (generated by CRISP/Cas9 technology and provided by EDIGENE, Beijing, China), were cultured in Dulbecco’s Modified Eagle medium (DMEM). HCT-116 and HT-29 colon cancer cells were cultured in McCoy’s 5A medium whereas SW480 and SW620 colon cancer cells were cultured in Leibovitz’s L-15 medium. All media were supplemented with 10% (v/v) fetal bovine serum (FBS), 100 units/mL penicillin, and 100 µg/mL streptomycin. DMEM-based medium for the culture of HeLa CSNK1D knock-out cells was additionally supplemented with 1 μg/mL puromycin. Cell cultures were maintained at 37 °C in a humidified atmosphere containing 5% CO2. Cells were transfected using Effectene transfection reagent (Qiagen, Hilden, Germany) according to the manufacturer’s instructions. […]
(§2) For performing MTT viability assays, cells were seeded in a 96-well plate (5 × 10^4 cells/well for HeLa cells (parental, CK1δ^−/−, or CK1δ^−/− cells stably transfected with wild type or mutant CK1δ), HCT-116, and HT-29 cells or 7.5 × 10^4 cell/well for SW480 and SW620 cells). […] Absorbance was measured at 570 nm with TriStar^2 LB942 Microplate Reader (Berthold Technologies, Bad Wildbad, Germany) and data analysis was performed using GraphPad Prism 6 (GraphPad Software, San Diego, CA, USA).

[2] = test system: HCT-116 colon cancer cells; assay: MTT viability assay, HCT-116; format: cell-based; details: 48 h, dose series (Figure S2)
Protocol: as §1, §2

[3] = test system: HeLa CK1δ−/− cells expressing CK1δ R127Q; assay: MTT viability assay, HeLa CK1δ−/− cells expressing CK1δ R127Q; format: cell-based; details: 5 μM, 48 h
Protocol: as §1, §2

HT-29 colon cancer cells = assay: MTT viability assay, HT-29; format: cell-based; details: 10 µM, 48 h, initial screening (Figure 10a)
Protocol: (§3) Parental HeLa cells, as well as HeLa CSNK1D knock-out cells (CK1δ^−/−) (generated by CRISP/Cas9 technology and provided by EDIGENE, Beijing, China), were cultured in Dulbecco’s Modified Eagle medium (DMEM). HCT-116 and HT-29 colon cancer cells were cultured in McCoy’s 5A medium whereas SW480 and SW620 colon cancer cells were cultured in Leibovitz’s L-15 medium. All media were supplemented with 10% (v/v) fetal bovine serum (FBS), 100 units/mL penicillin, and 100 µg/mL streptomycin. DMEM-based medium for the culture of HeLa CSNK1D knock-out cells was additionally supplemented with 1 μg/mL puromycin. Cell cultures were maintained at 37 °C in a humidified atmosphere containing 5% CO2. Cells were transfected using Effectene transfection reagent (Qiagen, Hilden, Germany) according to the manufacturer’s instructions. For selection of stably transfected clones, transfected cells were grown in selective medium, containing 0.6 mg/mL of G-418 (Calbiochem-Merck Millipore, Darmstadt, Germany).
(§4) For performing MTT viability assays, cells were seeded in a 96-well plate (5 × 10^4 cells/well for HeLa cells (parental, CK1δ^−/−, or CK1δ^−/− cells stably transfected with wild type or mutant CK1δ), HCT-116, and HT-29 cells or 7.5 × 10^4 cell/well for SW480 and SW620 cells). After 24 h, old medium was replaced with fresh medium containing either the small molecule of interest or DMSO as control. After 48 h of treatment, 10 μL MTT (5 mg/mL) was added and incubated at 37 °C for 4 h. The medium was then gently removed and 100 μL of acidic isopropanol was added (90% (v/v) isopropanol, 10% (v/v) 1 N HCl). Cell culture plates were then shaken for 30 min at room temperature. Absorbance was measured at 570 nm with TriStar^2 LB942 Microplate Reader (Berthold Technologies, Bad Wildbad, Germany) and data analysis was performed using GraphPad Prism 6 (GraphPad Software, San Diego, CA, USA).

SW620 colon cancer cells = assay: MTT viability assay, SW620; format: cell-based, human; details: 48 h; for Reduction of cell viability, SW620: 10 µM, initial screening (Figure 10a)
Protocol: as §3, §4

[4] = target: CK1δ wild type (GST-CK1δ) (Homo sapiens, UniProt P48730); assay: in vitro kinase assay, GST-CK1δ wild type; format: biochemical; details: for Kinase activity of CK1δ in presence of inhibitor: 10 µM inhibitor, initial screening; for IC50: dilution series 0.005−10 µM, mean ± standard error, triplicate
Protocol: Overexpression and purification of GST-CK1δ fusion proteins, either wild type or mutant, were performed as described previously.
Each kinase assay reaction was performed in kinase buffer (25 mM Tris-HCl (pH 7.5), 10 μM ATP, 10 mM MgCl2, 100 μM EDTA) in presence of purified GST-CK1δ kinase as source of enzyme (either wild type or mutant), an assay-specific substrate (α-casein, GST-p53^1−64, or GST-β-catenin^1−181), and radiolabeled ATP (2 μCi [γ-^32P]-ATP). For performing Michaelis–Menten analysis increasing substrate concentrations were used (α-casein: 0.39−25 μM; GST-p53^1−64: 0.09−1.87 μM; GST-β-catenin^1−181: 0.07−1.32 μM). For biological evaluation of small molecule inhibitors (SMIs), each inhibitor compound was either tested at 10 μM concentration for initial screening or by using a dilution series (0.005−10 µM) for determination of IC50 values. DMSO was used as control. Reactions were incubated for 30 min at 30 °C and reactions were stopped using 5x SDS-loading buffer (250 mM Tris-HCl [pH 6.8], 25% (v/v) β-mercaptoethanol (MSH), 50% (v/v) glycerol, 10% (w/v) SDS, 0.5% (w/v) bromphenol blue). Subsequently, samples were separated by SDS-PAGE using 12.5% acrylamide gels, stained with Coomassie, and phosphorylated substrates were visualized on X-ray film. Incorporation of radiolabeled phosphate was quantified by scintillation counting of Coomassie-stained substrate bands. Defined dilutions of the reaction master mix were counted as well in order to convert results obtained as counts per minute (CPM) to units of transferred phosphate in pmol/min. Michaelis–Menten analysis was performed using GraphPad Prism 6 (GraphPad Software, San Diego, CA, USA).

[5] = test system: HeLa CK1δ−/− cells expressing CK1δ R168H; assay: MTT viability assay, HeLa CK1δ−/− cells expressing CK1δ R168H; format: cell-based; details: 5 μM, 48 h
Protocol: as §1, §2

SW480 colon cancer cells = assay: MTT viability assay, SW480; format: cell-based, human; details: 10 µM, 48 h, initial screening (Figure 10a)
Protocol: as §3, §4

CK1γ = assay: in vitro kinase assay, CK1γ; format: biochemical; details: 10 µM inhibitor, initial screening
CK1ε = CK1ε (Homo sapiens, UniProt P49674); assay: in vitro kinase assay, CK1ε; format: biochemical; details: 10 µM inhibitor, initial screening
CK1α = CK1α (Homo sapiens, UniProt P48729); assay: in vitro kinase assay, CK1α; format: biochemical; details: 10 µM inhibitor, initial screening
HeLa CK1δ−/− cells = assay: MTT viability assay, HeLa CK1δ−/− cells; format: cell-based; details: 5 μM, 48 h
Protocol: as §3, §4

CK1δ wild type (GST-CK1δ), sequence (P48730 whole entry, the tested form may be a part): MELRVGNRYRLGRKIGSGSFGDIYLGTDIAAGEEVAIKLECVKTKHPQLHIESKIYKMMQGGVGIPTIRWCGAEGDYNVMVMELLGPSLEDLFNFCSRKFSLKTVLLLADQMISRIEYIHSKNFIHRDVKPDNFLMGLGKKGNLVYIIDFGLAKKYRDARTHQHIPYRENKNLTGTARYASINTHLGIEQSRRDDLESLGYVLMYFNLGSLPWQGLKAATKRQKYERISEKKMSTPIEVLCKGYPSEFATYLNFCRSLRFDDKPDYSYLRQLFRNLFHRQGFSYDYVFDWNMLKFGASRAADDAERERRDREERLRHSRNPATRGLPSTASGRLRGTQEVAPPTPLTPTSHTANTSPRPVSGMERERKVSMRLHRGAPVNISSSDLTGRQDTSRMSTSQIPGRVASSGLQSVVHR
CK1α, sequence (P48729 whole entry): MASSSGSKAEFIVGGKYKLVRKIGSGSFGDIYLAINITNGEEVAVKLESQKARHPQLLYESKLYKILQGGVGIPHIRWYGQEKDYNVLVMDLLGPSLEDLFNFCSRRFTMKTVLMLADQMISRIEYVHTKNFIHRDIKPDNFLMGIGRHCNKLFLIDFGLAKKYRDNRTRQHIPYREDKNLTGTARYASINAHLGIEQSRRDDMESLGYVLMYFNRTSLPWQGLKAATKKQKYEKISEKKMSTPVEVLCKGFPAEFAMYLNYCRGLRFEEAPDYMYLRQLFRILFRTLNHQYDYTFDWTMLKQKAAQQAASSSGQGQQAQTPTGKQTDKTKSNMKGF
CK1ε, sequence (P49674 whole entry): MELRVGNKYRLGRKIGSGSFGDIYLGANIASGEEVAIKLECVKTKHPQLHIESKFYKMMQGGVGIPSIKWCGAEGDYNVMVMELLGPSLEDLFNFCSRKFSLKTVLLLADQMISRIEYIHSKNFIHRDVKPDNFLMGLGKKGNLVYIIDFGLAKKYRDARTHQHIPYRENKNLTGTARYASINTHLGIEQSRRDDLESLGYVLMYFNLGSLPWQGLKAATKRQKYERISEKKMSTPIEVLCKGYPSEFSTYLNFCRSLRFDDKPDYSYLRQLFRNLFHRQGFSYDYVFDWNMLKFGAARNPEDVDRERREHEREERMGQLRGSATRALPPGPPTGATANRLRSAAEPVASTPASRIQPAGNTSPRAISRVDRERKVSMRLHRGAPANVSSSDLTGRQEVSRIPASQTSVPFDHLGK

| SMILES | Cell viability of HeLa CK1δ−/− cells expressing CK1δ T67S vs CK1δ WT [1] | Reduction of cell viability, HCT-116 ([2]; 0.625 µM) | Cell viability of HeLa CK1δ−/− cells expressing CK1δ R127Q vs CK1δ WT [3] | Reduction of cell viability, HT-29 (HT-29 colon cancer cells) | Reduction of cell viability, SW620 (SW620 colon cancer cells) | Dose-dependent effects on SW620 cell viability (SW620 colon cancer cells; 0.625 to 20 µM, MTT (Figure S2)) | EC50 (SW620 colon cancer cells; Homo sapiens, SW-620, 0.625-20 µM, MTT, read-out: EC50 (SW620), cell viability) | Kinase activity of CK1δ in presence of inhibitor [4] | IC50 [4] | Cell viability of HeLa CK1δ−/− cells expressing CK1δ R168H vs CK1δ WT [5] | Reduction of cell viability, SW480 (SW480 colon cancer cells) | Kinase activity of CK1γ in presence of inhibitor (CK1γ) | Kinase activity of CK1ε in presence of inhibitor (CK1ε) | Reduction of CK1α activity (CK1α) | Cell viability of HeLa CK1δ−/− compared to parental cells or HeLa CK1δ+/+ cells (HeLa CK1δ−/− cells) | Reduction of cell viability, HCT-116 ([2]; 1.25 µM) |
| --- | --- | --- | --- | --- | --- | --- | --- | --- | --- | --- | --- | --- | --- | --- | --- | --- |
| COc1ccc(Cn2c(SCC(=O)Nc3nc4ccc(C(F)(F)F)cc4s3)nccc2=O)cc1 [Compound 20, 2-((3-(4-Methoxybenzyl)-4-oxo-3,4-dihydropyrimidin-2-yl)thio)-N-(6-(trifluoromethyl)benzo[d]thiazol-2-yl)acetamide] | no mutant-specific effects | approximately 30% | no mutant-specific effects | approximately 35% | about 60% | clear dose-dependent effects | 3000 nM | strongly inhibited | 90 nM and 86 nM | no mutant-specific effects | approximately 35% | not affected | strongly inhibited | at least 50% | significantly less affected | – |
| O=C(CSc1nccc(=O)n1Cc1ccccc1F)Nc1nc2ccc(C(F)(F)F)cc2s1 [Compound 22] | – | – | – | approximately 35% | 25% | – | – | strongly inhibited | 240 ± 40 nM | – | approximately 35% | not affected | strongly inhibited | at least 50% | – | approximately 30% |
